Measured values: PMC12114846, “Interleukin-15Rα-Sushi-Fc Fusion Protein Co-Hitchhikes Interleukin-15 and Pheophorbide A for Cancer Photoimmunotherapy” (Pharmaceutics, 2025)

Columns and labels:
rILR-Fc = biological target: T1, rILR-Fc (Homo sapiens, UniProt Q13261); test: Microscale thermophoresis of PhA with Cy5-labeled rILR-Fc; type: binding; conditions: MST, Cy5-labeled rILR-Fc 15 nM, PBS buffer
T1 construct: the human sushi domain (amino acids 1-77) of IL-15-Rα; His tag; made in house; host or cells: Pichia pastoris GS115
Description: The dissociation constant (KD) between PhA and rILR-Fc was measured by the microscale thermophoresis (MST) technique, according to our previously reported method. Briefly, PhA was dissolved in dimethyl sulfoxide (DMSO) and subjected to a series of dilutions to prepare ligand solutions ranging from 0.4 μM to 0.098 nM. Cy5-labeled rILR-Fc was prepared at a concentration of 15 nM and incubated with the ligand solutions for 10 min. The resulting samples were then loaded into capillaries (NanoTemper Technologies, Munich, Germany) for MST analysis.

[1] = Plasma pharmacokinetics of PhA after i.v. injection; type: in vivo, BALB/c mice; conditions: 2.5 mg/kg of PhA, mice
Description: The free PhA formulation was prepared by dissolving PhA in 0.1% NaOH (w/v) via sonication to obtain a 4 mg/mL stock solution, followed by dilution with PBS to obtain the injection dose. An alkali solution can increase the solubility of pheophorbide A applied to photodynamic therapy. Blood samples were collected from the tail veins into heparin tubes at time points of 0.1, 0.5, 0.75, 1, 1.5, 2, 3, 4, and 5 h post-injection, respectively. PhA was extracted from plasma using a mixture of acetonitrile and methanol (1:1 v/v). The mixture was vortexed for 10 s, followed by centrifugation at 12,000 rpm for 10 min at 4 °C. The supernatant was transferred to a black 96-well plate, and the concentration of PhA was determined by the Hybrid Multi-Mode Microplate Reader (λex = 400 nm, λem = 656 nm).
(§1) Pharmacokinetic parameters including the elimination half-life (t1/2), the area under the concentration–time curve to the least measurable concentration (AUC0→n), the area under the moment curve (AUMC), the mean residence time (MRT), clearance (Cl), and the steady-state volume of distribution (Vss) were calculated using non-compartmental analysis.

s.c. CT26-Luc tumors = test: Live fluorescence imaging of PhA in s.c. tumor; type: in vivo, BALB/c mice; conditions: post-injection, i.v., 2.5 mg/kg of PhA
Description: The tumor models were established according to our previous method. For the subcutaneous (s.c.) tumor model, 2 × 10^6 CT26-Luc cells in 50 μL PBS were implanted into the right axillary fossae of anesthetized male BALB/c mice. Orthotopic models were established through the injection of 2 × 10^6 CT26-Luc cells (20 μL PBS) into the subserosal layer of the cecum.
Live fluorescence imaging was conducted using the IVIS system (Caliper Life Sciences, USA) (λex = 675 nm, λem = 720 nm) at serial time points (18 min, 30 min, 45 min, 1 h, 1.5 h, 2 h, 3 h, 4 h, 6 h, 17 h, and 27 h) post-injection. The fluorescence intensity in the tumor region was quantified by deducting the fluorescence intensity of the mouse tumor before the administration of nanoparticles from that at each time point post-administration. […] The plasma, heart, liver, spleen, lung, kidney, lymph node, skin, and tumor were harvested for IVIS imaging (λex = 675 nm, λem = 720 nm). The tissue uptake of PhA was presented through the semi-quantitative analysis of the fluorescence intensity.

[2] = Skin photosensitivity after xenon light; type: in vivo, BALB/c mice; conditions: 2.5 mg/kg of PhA i.v., xenon light 5 mW/cm^2 for 25 min at 24 h post-injection
Description: To evaluate the skin photosensitivity, healthy BALB/c mice were depilated and randomly divided into three groups. […] Mice injected with PBS were used as controls. At 24 h post-injection, all mice were exposed to a long-arc xenon lamp (5 mW/cm^2, 25 min), which is generally used in solar simulation systems, emitting a high-intensity radiant flux with a visible spectrum closely approximating that of unfiltered daylight. A 1.5 cm × 1.5 cm section of skin was collected from the dorsal areas of the mice for H&E staining.

[3] = system: orthotopic CT26-Luc tumors; test: Antitumor effect, survival and rechallenge; conditions: PhA-containing groups + PDT; rILR-Fc/rIL-15 without laser; 2.5 mg/kg of PhA, 0.3 mg/kg of rIL-15; n = 8; PBS group 32 days
Description: For the laser treatment, the abdominal cavity of the mouse was opened under anesthesia; then, the tumor foci on the cecum were exposed and irradiated with a 660 nm diode laser (80 mW/cm^2) through a quartz optic fiber (0.9 mm diameter) for 10 min at 35 min post-injection. The abdominal cavity was sutured after the laser treatment. […] The tumor burden was monitored via the bioluminescence signal using an IVIS system after the i.p. injection of D-luciferin (15 mg/mL, 200 μL).
Age-matched naive male BALB/c mice were used as the controls. The tumor volume and the bioluminescence signals were recorded to assess the antitumor effects following different treatments. The death point was defined as when the tumor volume reached 2000 mm^3, calculated by the following equation:(3) Vt=L × W^2/2 where Vt is the tumor volume, L is the tumor length, and W is the tumor width.

M-07e cells = test: Proliferation of M-07e cells (WST-1); type: cell-based; conditions: for EC50: 72 h incubation, WST-1
Description: The protein of rIL-15 and rILR-Fc were analyzed by sodium dodecyl sulfate–polyacrylamide gel electrophoresis (SDS-PAGE) and a Western blot. The Western blot was performed according to our previously reported method. The primary antibody used in the Western blot was the his-tag mouse monoclonal antibody (1:5000, 66005-1-Ig, Proteintech, Wuhan, China), and the secondary antibody was horseradish peroxidase (HRP)-conjugated goat anti-mouse IgG (1:5000, 33201ES60, Yeasen, Shanghai, China). The biological activity of rIL-15 and rILR-Fc/rIL-15 was determined by their ability to stimulate the proliferation of M-07e cells.
The biological activity of the nanoparticles was determined by their ability to stimulate the proliferation of M-07e cells, as described in the Supplementary Materials. […]
gene fragment (ILR-Fc), which was then ligated into the liner pPIC9k vector. […]
Matrix-assisted laser desorption/ionization time-of-flight mass spectrometry (MALDI-TOF-MS) analysis was performed to calculate the molecular mass of rILR-Fc, with sinapic acid selected as the matrix. The released oligosaccharides were analyzed by sodium dodecyl sulfate-polyacrylamide gel electrophoresis (SDS-PAGE). […]
The biological activity of recombinant proteins or nanoparticles were determined by their ability to stimulate the proliferation of M-07e cells. […]
cells (10,000 cells/well) were plated in RPMI-1640 supplemented with 10% fetal bovine serum (FBS) in a 96-well plate and incubated with proteins (rIL-15, rILR-Fc/rIL-15, rIL-15Rα-Fc/rIL-15, rIL-15-wt, rILR-Fc/rIL-15-wt and rIL-15Rα-Fc/rIL-15-wt) at the specified concentration for 72 h at 37 °C. Cell proliferation was determined using the water-soluble tetrazolium 1 (WST-1) cell counting kit (Beyotime, Shanghai, China) following the manufacturer’s instructions. Similarity, the biological activity of nanoparticles was determined by incubated with nanoparticles at the specified concentration to stimulate the proliferation of M-07e cells. […]
Aﬃnity was measured by enzyme-linked immunosorbent assay (ELISA). […]

[4] = Serum pharmacokinetics of rIL-15 after i.v. injection (ELISA); type: in vivo, C57BL/6 mice; conditions: 0.3 mg/kg of rIL-15, mice
Description: For the rIL-15 group, blood was collected from the tail veins at time points of 5, 10, 15, 20, 30, 45, 60, 75, and 90 min post-injection, respectively. For the other groups, blood was collected at time points of 5, 10, 20, 30, 60, 90, 120, 180, 240, 300, and 360 min post-injection, respectively. The concentrations of rIL-15 in mouse sera were quantified by ELISA, as described above regarding the characterization of the nanoparticles.
as §1

T1 sequence (Q13261 with tags, fused parts or gaps limits assumed): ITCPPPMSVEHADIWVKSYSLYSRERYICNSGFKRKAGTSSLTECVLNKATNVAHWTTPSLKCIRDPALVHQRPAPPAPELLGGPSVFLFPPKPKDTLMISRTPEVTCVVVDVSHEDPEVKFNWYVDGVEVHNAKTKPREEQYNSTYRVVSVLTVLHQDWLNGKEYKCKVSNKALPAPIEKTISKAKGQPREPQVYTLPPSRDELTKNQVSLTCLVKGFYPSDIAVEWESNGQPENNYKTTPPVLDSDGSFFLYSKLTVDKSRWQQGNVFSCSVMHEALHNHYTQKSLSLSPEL

| Compound | Kd (rILR-Fc) | AUMC of PhA [1] | Cl of PhA [1] | Vss of PhA [1] | MRT ([1]; male, BALB/c, mouse, iv) | AUC ([1]; male, BALB/c, mouse, iv, read-out: AUC0→n of PhA) | half-life ([1]; male, BALB/c, mouse, iv, read-out: t1/2 of PhA (converted)) | time of peak accumulation of PhA in the tumor (s.c. CT26-Luc tumors) | skin after light exposure (H&E staining) [2] | median survival time [3] | EC50 (M-07e cells) | EC50 fold smaller than that of rIL-15-wt (M-07e cells; M-07e proliferation) | AUC0→n of rIL-15 [4] | AUMC of rIL-15 [4] | Cl of rIL-15 [4] | MRT of rIL-15 [4] | Vss of rIL-15 [4] | t1/2 of rIL-15 [4] |
| --- | --- | --- | --- | --- | --- | --- | --- | --- | --- | --- | --- | --- | --- | --- | --- | --- | --- | --- |
| C=Cc1c(C)c2cc3nc(c4c5[nH]c(cc6nc(cc1[nH]2)C(C)=C6CC)c(C)c5C(=O)[C@@H]4C(=O)OC)[C@@H](CCC(=O)O)[C@@H]3C [PhA, pheophorbide A] | 200 nM | 15.97 ± 4.162 μg/mL·h^2 | 8.129 ± 1.527 (μg)/(μg/mL)/h | 18.20 ± 1.111 (μg)/(μg/mL) | 2.35 ± 0.315 h | 6490 ± 1010 ng·h/mL | 1.76 ± 0.164 h | 1.5 h | remained unchanged after light exposure | 42 days | – | – | – | – | – | – | – | – |
| rIL-15-wt: recombinant wild type IL-15 obtained from Sino biological (10360-H07E) | – | – | – | – | – | – | – | – | – | – | 3.26 nM | – | – | – | – | – | – | – |
| rIL-15: N72D-mutated human IL-15 produced in E. coli BL21 (DE3) cells | – | – | – | – | – | – | – | – | – | – | 0.92 nM | ~ 3.5 fold | 664.4 ± 196.1 ng/mL·min (×10) | 544.5 ± 73.17 ng/mL·min^2 (×10^2) | 5.766 ± 2.519 (μg)/(ng/mL)/min (×10^−4) | 9.913 ± 2.956 min | 6.351 ± 3.348 (μg)/(ng/mL) (×10^−3) | 0.3373 ± 0.0195 h |
